# Results: patent US20180050018A1, “PERIPHERAL-ANTICHOLINERGIC MUSCARINIC AGONIST COMBINATION” (Chase Pharmaceuticals Corporation, priority 2015, published 2018)
# How the values were obtained:
# [1] = oral and iontophoretic patch administration, with oxadiazole muscarinic agonists; cited from earlier work
# [2] = test system: rats and monkeys; conditions: rats and monkeys (Schwarz 1999); cited from earlier work
# [3] = test system: Male Swiss mice; assay: T-maze continuous alternation task (T-CAT) in mice; type: in vivo
# Source text: Evaluation of Cognition with Oxybutynin and Xanomeline in the T-maze Alternation Task in Mice The T-maze continuous alternation task (T-CAT) is useful as model for studying compounds with cognitive enhancing properties. The T-maze consists of 2 choice arms and 1 start arm mounted to a square center. Manual doors are provided to close specific arms during the force choice alternation task. Male Swiss mice (4-6 weeks old), N=10 per treatment group were used, and were pre-treated with: • Oxybutynin at the dose that blocked fecal pellet excretion in Study 2 of Example 1. […] Mice were randomly assigned to one of the different experimental treatment groups. Each animal was identified by its group name, cage number, series (day) of experiment, and number (1 to 10) written with permanent ink on the tail. The T-maze apparatus is made of gray Plexiglas with a main stem (55 cm long×10 cm wide×20 cm high) and two arms (30 cm long×10 cm wide×20 cm high) positioned at 90 degree angle relative to the main stem. A start box (15 cm long×10 cm wide) is separated from the main stem by a guillotine door. Horizontal doors are also provided to close specific arms during the force choice alternation task.
# The experimental protocol consisted of one single session, which started with 1 “forced-choice” trial, followed by 14 “free-choice” trials. In the first “forced-choice” trial, animals were confined for 5 seconds to the start arm and then were released while either the left or the right goal arm was blocked by the horizontal door. Animals then negotiated the maze, eventually entering the open goal arm, and returned to the start position. […]
# The apparatus was cleaned between each animal using 40% ethanol. […] The percentage of alternation over the 14 free-choice trials was determined for each mouse and was used as an index of working memory performance. […] The drug-induced improvement of memory was calculated by setting the respective response of the saline/vehicle as 100% and that of the test group as 0% reversion. […]
# [4] = test system: Male Swiss mice; assay: Antagonism of xanomeline-induced diarrhea in mice by oxybutynin (fecal pellet count); type: in vivo; conditions: oxybutynin i.p. 0.3 to 30 mg/kg, 30 minutes before xanomeline 30 mg/kg
# Procedure: Male Swiss mice (4-6 weeks old), N=10 per treatment group were used. Animals were pretreated with i.p. oxybutynin (a representative peripheral muscarinic receptor antagonist) or vehicle; 30 minutes later animals were treated with xanomeline at a dose of 30 mg/kg that caused diarrhea (as determined in Experiment 1). The dose of oxybutynin ordinarily ranged from 0.3 to 30 mg/kg. Mice were placed individually in cages without any bedding materials. During the experiment the number of fecal pellets was counted at different time-points as outlined below: • T-1h to T0: counting of the accumulated fecal pellets excreted, • T0: administration of oxybutinin. • T30 min: administration of vehicle or xanomeline. • T 30 min to T 2.5 h: counting of accumulated fecal pellets excreted. • T+2.5 h to T+4.5 h: counting of accumulated fecal pellets excreted. The total number of fecal pellets for each mouse was counted over time. An analysis of variance (ANOVA) was performed on the results. Fisher's Protected Least Significant Difference was used for pairwise comparisons. The p value ≦0.05 were considered significant. Grubbs' test (http (hypertext transfer protocol) www at graphpad.com/quickcalcs/Grubbs1.cfm) was used to detect outliers for each parameter in each experimental group.
# [5] = cited from earlier work
# [6] = test system: patients with Alzheimer disease; conditions: cited from earlier work
# [7] = test system: Male Swiss mice; assay: Dose-response to xanomeline in a mouse model of diarrhea (fecal pellet count); type: in vivo; conditions: xanomeline i.p. 0.3 to 30 mg/kg
# Source text: Male Swiss mice (4-6 weeks old), N=10 per treatment group were used, and treated intra-peritoneally (i.p.) with either vehicle (vehicle group) or increasing doses of xanomeline, a representative muscarinic agonist. Mice were randomly assigned to one of two experimental groups (vehicle; or increasing doses of xanomeline). Each animal was identified by its group name, cage number, series (day) of experiment, and number (1 to 10) written with permanent ink on the tail. Mice were placed individually in cages without any bedding materials. During the experiment the number of fecal pellets were counted at different time-points, starting one hour before the time of the administration of the test compound (TO), as outlined below: • T-1 h to T0: counting of the accumulated fecal pellets excreted. • T0: administration of the test compound, • T0 to T+2 h: counting of the accumulated fecal pellets excreted, • T+2 h to T+4 h: counting of the accumulated fecal pellets excreted, The total number of fecal pellets for each mouse was counted over time. An analysis of variance (ANOVA) was performed on the results. Fisher's Protected Least Significant Difference was used for pairwise comparisons; p values <0.05 were considered significant. Grubbs' test (http (hypertext transfer protocol) www at graphpad.com/quickcalcs/Grubbs1.cfm) was used to detect outliers for each parameter in each experimental group.
smiles,measurement,setting,value
NC(=O)C(c1ccccc1)(c1ccccc1)[C@@H]1CCN(CCc2ccc3c(c2)CCO3)C1 [darifenacin],effectiveness relative to the other muscarinic antagonists,[1],less effective than the other muscarinic antagonists
"CO/N=C/C1=CCCN(C)C1 [milameline, (E)-N-methoxy-1-(1-methyl-1,2,5,6-tetrahydropyridin-3-yl)methanimine]",doses producing central cholinergic action relative to doses stimulating peripheral cholinergic receptors,[2],doses slightly lower than those stimulating peripheral cholinergic receptors
CCN(CC)CC#CCOC(=O)C(O)(c1ccccc1)C1CCCCC1 (stereo not shown) [oxybutynin],effectiveness relative to the other muscarinic antagonists,[1],less effective than the other muscarinic antagonists
same,ability to perform the T-maze test after pretreatment,[3]; i.p. oxybutynin pretreatment 30 minutes before xanomeline,restored the animals' ability to perform the T-maze test
same,antagonism of xanomeline-induced diarrhea,[4],dose-dependently antagonized the diarrhea induced by xanomeline
"O=C(O[C@H]1CN2CCC1CC2)N1CCc2ccccc2[C@@H]1c1ccccc1 [solifenacin succinate, (1S)-(3R)-1-azabicyclo [2.2.2] oct-3-yl 3,4-dihydro-1-phenyl-2(1H)-iso-quinolinecarboxylate]",half-life (in words),[5]; in vivo,long half-life
"O=C(O[C@H]1C[C@H]2CC[C@@H](C1)[N+]21CCCC1)C(O)(c1ccccc1)c1ccccc1 [trospium chloride, Azoniaspiro [3β-benziloyloxy-(1α,5α)-nortropane-8,1′-pyrrolidine] chloride]",average plasma half-life,[5]; absorbed amount,about 18 hours
"CCCCCCOc1nsnc1C1=CCCN(C)C1 [xanomeline, 3-(4-hexyloxy-1,2,5-thiadiazol-3-yl)-1-methyl-5,6-dihydro-2H-pyridine]",cognitive and behavioral symptoms compared to placebo,"[6]; 6-month trial in Alzheimer disease patients (Bodick et al, 1997)",significantly improve cognitive and behavioral symptoms of Alzheimer disease
same,discontinuation rate due to side effects,[6]; Alzheimer's patient population (Mirza et al. 2003),higher than 50%
same,side effects,"[6]; bradycardia, gastro-intestinal distress, excessive salivation, sweating, Alzheimer disease patients",dose-dependent unacceptable side effects
same,ability to perform the T-maze test at the higher dose,"[3]; i.p. xanomeline, higher dose (dose that caused diarrhea)",animals were too sick to perform the test
same,"performance in the T-maze (percentage of alternation, working memory)","[3]; i.p. xanomeline, mice",dose-dependent increase in performance in the T-maze
same,diarrhea (number of fecal pellets excreted),[7],dose-dependently causes diarrhea
